# Data published in patent publication US10087144B2, “Agents for use in the treatment of cardiovascular and inflammatory diseases structurally based on 4(1 H)-quinolone” (UCL Business PLC, priority 2015, dated 2018).
# Read-outs that look alike come from different tables or passages of the source.
# Columns and labels:
# [1] = biological target: Human NPR-C (Homo sapiens (Human), UniProt P17342); assay: Surface plasmon resonance (SPR) spectroscopy, binding to immobilised human NPR-C; settings: FIGS. 5, 6 and 7
# Description: All SPR analysis was performed on a BIAcore T200 system using series S CM5 sensor chips. Data processing and analysis were performed using BIAevaluation software and Scrubber2. All sensorgrams were double referenced by subtracting the response on a reference flowcell and a blank sample.
# Human NPR-C (OriGene, Rockville, USA), was covalently attached to a CM5 chip via amine coupling. A surface density of 2700 RU was used for measurements with natriuretic peptides and the NPR-C antagonist M372049, and a density of 5200 RU for measurements with compound 118. Sequential injections of CNP (0.25, 0.50, 1, 2 & 4 nM) were performed at a flow rate of 30 μL/min for (240 s for each), followed by a dissociation time of 3600 s. Binding site saturation was observed and the surface was regenerated by two injections of 1M NaCl (200 s each). Binding of M372049 (0.94, 1.88, 3.75, 7.5, 15, 30 & 60 nM) and Compound 118 (1.17, 2.34, 4.70, 9.38, 18.75, 37.50, 75 & 150 μM) was analysed by sequential injections (120 s for M372049, 30 s for compound 118) followed by undisturbed dissociation (600 s for M372049, 30 s for compound 118), during which curves returned to baseline. Kinetic parameters were calculated assuming a simple 1:1 (Langmuir) binding.
# [2] = system: human platelets; assay: Human platelet aggregation in platelet rich plasma; type: cell-based; settings: for inhibition at 1 µM: Homo sapiens
# Description: Blood samples (35 ml) were taken from healthy volunteers who had abstained from aspirin, non-steroidal anti-inflammatory drugs or paracetamol for 14 days. Blood was collected by venepuncture into tri-sodium citrate (3.2% w/v) and centrifuged at 175 g for 15 min to obtain platelet rich plasma (PRP). Platelet poor plasma (PPP) was obtained by centrifugation of PRP at 15000 g for 5 min. The PRP (100 μl) was then added to the wells of 96-well plates and incubated for 15 mins with representative NPR-C agonists of the invention or vehicle (DMSO). Subsequently, platelet agonists (10 μl each) were added to wells in triplicate: adenosine diphosphate (ADP, 0.1-30 μM), arachidonic acid (AA, 0.03-1.3 mM), collagen (type I equine tendon 0.1-30 μg/ml), adrenaline (0.001-100 μM), ristocetin (0.2-3 mg/ml), TRAP6 (thrombin receptor activating peptide) amide (SFLLRN; 0.1-30 μM), U46619 (0.1-30 μM) or vehicle. Plates were then immediately placed in a 96-well plate reader and absorbance determined at 595 nm every 15 s for 16 min between vigorous shaking at 37° C. Changes in absorbance were converted to % aggregation by reference to the absorbances of PRP and PPP.
# [3] = system: rat mesenteric artery smooth muscle cells; assay: Ca2+ flux in response to Angiotensin II in isolated rat mesenteric artery smooth muscle cells (FLIPR); type: cell-based; settings: for inhibition at 1 µM / inhibition at 10 µM: Rattus norvegicus; for inhibition at 1 µM: read-out: % inhibition 1 μM; for inhibition at 10 µM: read-out: % inhibition 10 μM
# Description: Mesenteric artery smooth muscle cells were isolated from male Sprague-Dawley rats (200-250 g). Mesenteric arteries were dissected, cleared of extraneous tissue and incubated in an enzyme solution containing collagenase type I (1 mg/ml), soybean trypsin inhibitor (0.25 mg/ml), bovine albumin (1 mg/ml), CaCl2 (0.2 mM), 100 U/ml penicillin (100 U/ml) and streptomycin (100 μg/ml) in a humidified incubator with 5% CO2 in air. The enzyme solution was replenished at 30 min intervals and cells were pelleted by centrifugation (200 g, 5 min) and differentially plated (×2) for 15 min in Dulbecco's Modified Eagle's Medium (DMEM) supplemented with penicillin (100 U/ml), streptomycin (100 μg/ml), L-Glutamine (2 mM) and 10% heat inactivated New Zealand foetal calf serum. Cells were passaged by trypsinisation and viability determined by trypan blue exclusion.
# Measurements of Ca^2+ flux in response to Angiotensin II were conducted using a Fluorescent Imaging Plate Reader (FLIPR; Molecular Devices). Cells were plated at a density of 10,000 cells/well into black, clear-bottomed 96-well plates in DMEM supplemented with penicillin (100 U/ml), streptomycin (100 μg/ml), L-Glutamine (2 mM) and 10% heat inactivated New Zealand foetal calf serum. 24 hrs later the cells were incubated with Fluo-3-AM (4 μM) for 60 min at 37° C. Once dye-loaded, the cells were washed thoroughly with the proprietary assay buffer to remove any unincorporated dye. The cells were then incubated with varying concentrations of a number of representative NPR-C agonist molecules of the invention, C-type natriuretic peptide or vehicle (DMSO) and placed into the FLIPR. After 15 mins, Angiotensin II (100 nM) was automatically dispensed into each well and the fluorescence signal followed for 5 mins. Potency was determined by comparison of the peak fluorescence in each test well (run in triplicate) with that of the control (Angiotensin II alone). Background fluorescence (assay buffer only) was subtracted from all values.
# [4] = system: rat mesenteric arteries; assay: Vasoreactivity in rat mesenteric arteries in vitro (relaxation of U46619-contracted vessels, tension myograph); settings: for EC50: vasorelaxation, calculated from concentration-response curves
# Description: Male rats (Sprague-Dawley; 200-250 g) were stunned and killed by cervical dislocation. The mesentery was removed and third-order arteries mounted in an automated tension myograph (Danish Myotechnology). After an equilibration period of 45 min, vessels were normalized and diameter determined. Following normalization, each vessel was contracted repeatedly with the thromboxane A2-mimetic 9,11-dideoxy-11^α,9^α-epoxymethano-prostaglandin F2α (U46619; 1 μM) until the response was reproducible. The vessels were then washed to restore basal tone before contracting to approximately 50% of the maximum U46619-induced response. Once a stable response to U46619 was achieved, cumulative concentration-response curves were constructed with a variety of NPR-C agonists of the invention at varying concentrations (0.001-30 μM), or vehicle (DMSO). In some studies, concentration-response curves to NPR-C agonists were conducted in the presence of the NPR-C antagonist M372049 (10 μM). Only one curve to any one agonist was constructed in any single tissue.
# [5] = system: arterial blood pressure; assay: Mean arterial pressure measurements in anesthetized mice; type: in vivo
# Description: Mice were maintained under anesthesia (isoflurane, 1-1.5%, in 100% O2 at 0.4 L·min) throughout the experiment and body temperature was kept constant at 37.5° C. A Millar pressure transducer catheter (Millar Instruments, Houston, Tex., USA) was placed in the carotid artery for arterial blood pressure (BP) measurements and a tube catheter (polyvinyl tubing, 0.61 mm outside diameter) in the jugular vein for intravenous bolus doses of 118 ([…]) and vehicle (10% DMSO in PBS) using a 0.5 mL insulin syringe. A pump (flow 0.5 ml/h) was used for infusion of 118 (1 mg/kg/min) or vehicle (10% dimethylsulfoxide; DMSO in PBS) during 10 min. BP was evaluated throughout.
# [6] = 1 μM compound, inhibition of Angiotensin II (100 nM) Ca2+ flux peak fluorescence
# [7] = 10 μM compound, inhibition of Angiotensin II (100 nM) Ca2+ flux peak fluorescence
# Chain of Human NPR-C (P17342 27-541): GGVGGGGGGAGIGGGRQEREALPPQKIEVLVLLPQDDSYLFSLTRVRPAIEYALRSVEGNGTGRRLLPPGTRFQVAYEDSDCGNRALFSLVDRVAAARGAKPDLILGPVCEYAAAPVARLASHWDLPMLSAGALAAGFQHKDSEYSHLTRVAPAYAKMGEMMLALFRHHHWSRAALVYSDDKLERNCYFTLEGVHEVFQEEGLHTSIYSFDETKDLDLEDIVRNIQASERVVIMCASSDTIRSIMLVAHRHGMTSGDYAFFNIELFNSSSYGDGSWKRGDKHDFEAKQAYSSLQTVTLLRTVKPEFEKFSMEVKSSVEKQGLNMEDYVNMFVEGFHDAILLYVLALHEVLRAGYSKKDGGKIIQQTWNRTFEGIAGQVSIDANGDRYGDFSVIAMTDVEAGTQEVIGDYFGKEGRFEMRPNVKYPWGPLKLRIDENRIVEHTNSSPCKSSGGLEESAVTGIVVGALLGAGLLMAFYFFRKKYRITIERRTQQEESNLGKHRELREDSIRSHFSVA
compound,measurement,setting,value
CC[C@H](C)[C@H](NC(=O)[C@@H](CCCN=C(N)N)NC(=O)[C@H](CC(=O)O)NC(=O)[C@H]([C@@H](C)CC)N1CC[C@@H](NC(=O)Cc2ccc(NC(=O)c3cnc4ccccc4n3)cc2)C1=O)C(N)=O [Compound M372049],binding to human NPR-C (SPR),[1],binding
"C-type natriuretic peptide [CNP, reference compound]",% inhibition of human platelet aggregation (at 1 microM),[2],71.8%
same,% inhibition 1 μM,[3]; [6],100%
same,% inhibition 10 μM,[3]; [7],100%
same,binding to human NPR-C (SPR),[1],binding
same,EC50,[4],13.8 nM
"CC(C)(C)OC(=O)CNC(=O)c1cn(Cc2ccccc2)c2ccc(Br)cc2c1=O [Compound 28, tert-butyl 2-(1-benzyl-6-bromo-4-oxo-1,4-dihydroquinoline-3-carboxamido)acetate]",inhibition at 1 µM,[2],14.3%
same,inhibition at 1 µM,[3],100%
same,inhibition at 10 µM,[3],100%
same,inhibition at 1 µM,"[4]; Rattus norvegicus, 1 μM, U46619-contracted third-order arteries",22%
same,inhibition at 3 µM,"[4]; Rattus norvegicus, 3 μM, U46619-contracted third-order arteries",55%
same,inhibition at 10 µM,"[4]; Rattus norvegicus, 10 μM, U46619-contracted third-order arteries",97%
same,inhibition at 30 µM,"[4]; Rattus norvegicus, 30 μM, U46619-contracted third-order arteries",100%
same,EC50,[4]; Rattus norvegicus,1600 nM
"O=C(O)CNC(=O)c1cn(Cc2ccccc2)c2ccc(Br)cc2c1=O [Compound 118, 2-(1-benzyl-6-bromo-4-oxo-1,4-dihydroquinoline-3-carboxamido)acetic acid]",inhibition at 1 µM,[2],16.7%
same,inhibition at 1 µM,[3]; [6],95%
same,inhibition at 10 µM,[3]; [7],100%
same,binding to human NPR-C (SPR),[1],binding
same,change in BP after intravenous bolus doses,"[5]; i.v. bolus, FIG. 2",dose-dependent decrease in BP
same,change in BP during infusion,"[5]; infusion 1 mg/kg/min during 10 min, FIG. 3",reduction in BP that was sustained during 10 minutes
same,EC50,[4]; Rattus norvegicus,2800 nM
